In ChEMBL document CHEMBL1201862, “PubChem BioAssay data set” (2004):
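How tested: cells in 96-well plates exposed to compound for 48 hours at five concentrations. GI50 = concentration required for 50% inhibition of growth.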 Activity calls are given as the source filed them. No stated cut-off is given here; in the data, active = GI50 up to about 1.1 µM and inactive = higher.

Experiments:
Assay in all cases: DTP human tumour cell line panel, 48 h
786-0 = test system: 786-0
A498 = test system: A498
ACHN = test system: ACHN
DU-145 = test system: DU-145
IGROV-1 = test system: IGROV-1
K562 = test system: K562
KM12 = test system: KM12
M14 = test system: M14
MCF7 = test system: MCF7
Malme-3M = test system: Malme-3M
NCI-H226 = test system: NCI-H226
NCI-H522 = test system: NCI-H522
OVCAR-3 = test system: OVCAR-3
OVCAR-4 = test system: OVCAR-4
RPMI-8226 = test system: RPMI-8226
SNB-19 = test system: SNB-19
SW-620 = test system: SW-620
T47D = test system: T47D
U-251 = test system: U-251
UACC-62 = test system: UACC-62

Measured: GI50

CC(NNC(=O)c1cc[n+]([BH2-]C#N)cc1)c1ccccc1 (stereo not given)
inactive: 786-0 > 100 µM | A498 > 100 µM | ACHN > 100 µM | DU-145 > 100 µM | IGROV-1 > 100 µM | K562 > 100 µM | KM12 > 100 µM | M14 > 100 µM | MCF7 > 100 µM | Malme-3M > 100 µM | NCI-H226 > 100 µM | NCI-H522 > 100 µM | OVCAR-3 > 100 µM | OVCAR-4 > 100 µM | RPMI-8226 > 100 µM | SNB-19 > 100 µM | SW-620 > 100 µM | T47D > 100 µM | U-251 > 100 µM | UACC-62 > 100 µM

CC(C)(C)C#CI1OC(=O)c2ccccc21
inactive: 786-0 3.37 µM | A498 6.07 µM | ACHN 2.9 µM | DU-145 6.08 µM | IGROV-1 3.47 µM | K562 1.91 µM | KM12 6.85 µM | M14 3.31 µM | MCF7 4.03 µM | Malme-3M 3.03 µM | NCI-H226 4.63 µM | NCI-H522 1.76 µM | OVCAR-3 2.99 µM | OVCAR-4 2.72 µM | RPMI-8226 1.81 µM | SNB-19 9.27 µM | SW-620 3.44 µM | T47D 3.68 µM | U-251 4.84 µM | UACC-62 4.08 µM

Cc1cc2nnc(C(N)=O)c(N)c2cc1C
inactive: 786-0 29.1 µM | A498 > 100 µM | ACHN > 100 µM | DU-145 > 100 µM | IGROV-1 > 100 µM | K562 > 100 µM | KM12 > 100 µM | M14 > 100 µM | MCF7 > 100 µM | Malme-3M 38.4 µM | NCI-H226 > 100 µM | NCI-H522 20 µM | OVCAR-3 > 100 µM | OVCAR-4 > 100 µM | RPMI-8226 > 100 µM | SNB-19 > 100 µM | SW-620 > 100 µM | T47D > 100 µM | U-251 > 100 µM | UACC-62 > 100 µM

CC(O)C1(CNc2cc(Cl)nc(N)n2)CCCC1 (stereo not given)
inactive: 786-0 > 100 µM | A498 > 100 µM | ACHN > 100 µM | DU-145 > 100 µM | IGROV-1 > 100 µM | K562 > 100 µM | KM12 > 100 µM | M14 > 100 µM | MCF7 > 100 µM | Malme-3M > 100 µM | NCI-H226 > 100 µM | NCI-H522 > 100 µM | OVCAR-3 > 100 µM | OVCAR-4 75.3 µM | RPMI-8226 > 100 µM | SNB-19 > 100 µM | SW-620 > 100 µM | T47D > 100 µM | U-251 > 100 µM | UACC-62 > 100 µM
